The text below walks through data of BindingDB's records for doi:10.1016/j.ejmech.2020.113107 (Yantai University, 2021).

pIC50: −log10 of the molar value.

As a reminder, the pIC50 is the IC50 on a negative log10 scale, so that one unit is a factor of ten.

Series [1] is described as follows: Reversal of P-glycoprotein mediated multidrug resistance in human MCF-7T cells assessed as reversal of resistance to vincristine-induced cytotoxicity by measuring vincristine IC50 at 5 uM measured after 72 hrs by MTT assay. In general terms: Formazan colour is commonly taken as a measure of viable cells.
The nature of series [2]: Reversal of P-glycoprotein mediated multidrug resistance in human KBV cells assessed as reversal of resistance to vincristine-induced cytotoxicity by measuring vincristine IC50 at 5 uM measured after 72 hrs by MTT assay.
Series [3] in a line: Reversal of P-glycoprotein mediated multidrug resistance in human MCF-7T cells assessed as reversal of resistance to vincristine-induced cytotoxicity by measuring vincristine IC50 at 10 uM measured after 72 hrs by MTT assay.
The nature of series [4]: Reversal of P-glycoprotein mediated multidrug resistance in human KBV cells assessed as reversal of resistance to paclitaxel-induced cytotoxicity by measuring paclitaxel IC50 at 5 uM measured after 72 hrs by MTT assay.
Series [5] in a line: Reversal of P-glycoprotein mediated multidrug resistance in human KBV cells assessed as reversal of resistance to vincristine-induced cytotoxicity by measuring vincristine IC50 at 10 uM measured after 72 hrs by MTT assay.
The nature of series [6]: Reversal of P-glycoprotein mediated multidrug resistance in human MCF-7T cells assessed as reversal of resistance to paclitaxel-induced cytotoxicity by measuring paclitaxel IC50 at 5 uM measured after 72 hrs by MTT assay.
The nature of series [7]: Reversal of P-glycoprotein mediated multidrug resistance in human MCF-7T cells assessed as reversal of resistance to paclitaxel-induced cytotoxicity by measuring paclitaxel IC50 at 10 uM measured after 72 hrs by MTT assay.
Series [8] can be described thus: Reversal of P-glycoprotein mediated multidrug resistance in human KBV cells assessed as reversal of resistance to paclitaxel-induced cytotoxicity by measuring paclitaxel IC50 at 10 uM measured after 72 hrs by MTT assay.

`CC1(C)CC[C@]2(C(=O)OCc3ccccc3)CC[C@]3(C)C(=CC[C@@H]4[C@@]5(C)Cc6nccnc6[C@@](C)(COC(=O)CCC(=O)OCCOCCOCCOCCO)[C@@H]5CC[C@]43C)[C@@H]2C1`: the negative-log IC50 (pIC50) is 8.28 in series [1]; 8.40 in series [2]; 10.40 in series [3]; 7.66 in series [4]; 9.10 in series [5]; 8.27 in series [6]. Moreover, the pIC50 in series [7] is 9.05; in series [8], 8.34.
In the case of `COc1cc2c(cc1OC)CN(CCc1ccc(NC(=O)c3cc(OC)c(OC)cc3NC(=O)c3cnc4ccccc4c3)cc1)CC2`, the negative logarithm of the IC50 (pIC50) in series [1] is 9.15; in series [2], 8.48; in series [3] it was 9.66; in series [4] it was 8.12; in series [5], 8.68; in series [6] it was 8.48. For the same compound, the negative logarithm of the IC50 (pIC50) in series [7] is 9.59; in series [8], 8.35.
Consider `CC1(C)CC[C@]2(C(=O)OCc3ccccc3)CC[C@]3(C)C(=CC[C@@H]4[C@@]5(C)Cc6nccnc6[C@@](C)(CO)[C@@H]5CC[C@]43C)[C@@H]2C1`, for which the pIC50 in series [1] was 8.16; in series [2], 7.77; in series [3] it was 10.52; in series [4], 7.23; in series [5] it was 8.66; in series [6], 7.89. Also, the pIC50 in series [7] is 8.82; in series [8], 7.80.
